Test results published in publication PMC10360169 (Frontiers in Immunology, 2023).
Read-outs that look alike come from different tables or passages of the source.

How the values were obtained:
Acar19 = format: binding, great reed warbler Acrocephalus arundinaceus; settings: Table S5, half-life estimated from dissociation in scintillation proximity assay
Acar3 = format: binding, great reed warbler Acrocephalus arundinaceus
[1] = Table S1, top 94 PSCPL-scoring peptides, SPA, 10µM peptide, 125I β2m, folding over night at 18°C, dissociation measured up to 24 hours at 37°C
[2] = Table S5, half-life estimated from dissociation in scintillation proximity assay, Acar3

AFHQLVQVI [9-mer peptide]
Stability T½ (h), peptide - Acar19 (Acar19): 0.3 h

AYAGLFTPL [9-mer peptide]
Stability T½ (h), peptide - Acar19 (Acar19): 0.4 h

DAAKNQVAM [9-mer peptide]
Stability T½ (h), peptide - Acar19 (Acar19): 0.2 h

DAAVVFPPV [9-mer peptide]
Stability T½ (h), peptide - Acar19 (Acar19): 10.0 h

DALLNEENL [9-mer peptide]
Stability T½ (h), peptide - Acar19 (Acar19): 2.0 h

DAMENPLSL [9-mer peptide]
Stability T½ (h), peptide - Acar19 (Acar19): 0.2 h

DASFNASAI [9-mer peptide]
Stability T½ (h), peptide - Acar19 (Acar19): 1.0 h

DAVRNAAAI [9-mer peptide]
Stability T½ (h), peptide - Acar19 (Acar19): 0.3 h

DFGYATMAK [9-mer peptide]
Stability T½ (h), peptide - Acar19 (Acar19): 0.3 h

DFIANTETI [9-mer peptide]
Stability T½ (h), peptide - Acar19 (Acar19): 4.7 h

DFISMYFPW [9-mer peptide]
Stability T½ (h), peptide - Acar19 (Acar19): 0.5 h

DFNEAIQAY [9-mer peptide]
Stability T½ (h), peptide - Acar19 (Acar19): 0.3 h

DHIPIINTL [9-mer peptide]
Stability T½ (h), peptide - Acar19 (Acar19): 0.3 h

DIKLIDIAL [9-mer peptide]
Stability T½ (h), peptide - Acar19 (Acar19): 3.7 h

DIQKLVGKL [9-mer peptide]
Stability T½ (h), peptide - Acar19 (Acar19): 0.4 h

DISPTNIPL [9-mer peptide]
Stability T½ (h), peptide - Acar19 (Acar19): 0.2 h

DMNLEQWSV [9-mer peptide]
Stability T½ (h), peptide - Acar19 (Acar19): 0.4 h

DMSTNAEYF [9-mer peptide]
Stability T½ (h), peptide - Acar19 (Acar19): 0.2 h

DMWEHAFYL [9-mer peptide]
Stability T½ (h), peptide - Acar19 (Acar19): 0.3 h

DPNPQEMVL [9-mer peptide]
Stability T½ (h), peptide - Acar19 (Acar19): 0.1 h

DPNPQEVVL [9-mer peptide]
Stability T½ (h), peptide - Acar19 (Acar19): 0.4 h

DPSGAYFAW [9-mer peptide]
Stability T½ (h), peptide - Acar19 (Acar19): 0.1 h

DQIRNMSVI [9-mer peptide]
Stability T½ (h), peptide - Acar19 (Acar19): 0.3 h

DSFPNSVTI [9-mer peptide]
Stability T½ (h), peptide - Acar19 (Acar19): 1.4 h

DSIMLTATF [9-mer peptide]
Stability T½ (h), peptide - Acar19 (Acar19): 1.5 h

DTAKAFAYL [9-mer peptide]
Stability T½ (h), peptide - Acar19 (Acar19): 0.5 h

DTDPLPVVF [9-mer peptide]
Stability T½ (h), peptide - Acar19 (Acar19): 0.2 h

DTETLTTMF [9-mer peptide]
Stability T½ (h), peptide - Acar19 (Acar19): 0.1 h

DTFGVIDTM [9-mer peptide]
Stability T½ (h), peptide - Acar19 (Acar19): 0.2 h

DTRAIDQFF [9-mer peptide]
Stability T½ (h), peptide - Acar19 (Acar19): 2.3 h

DVAKIEAPL [9-mer peptide]
Stability T½ (h), peptide - Acar19 (Acar19): 11.4 h

DVSPILEAY [9-mer peptide]
Stability T½ (h), peptide - Acar19 (Acar19): 0.1 h

DVVPMVTQM [9-mer peptide]
Stability T½ (h), peptide - Acar19 (Acar19): 0.6 h

DWMERIEDF [9-mer peptide]
Stability T½ (h), peptide - Acar19 (Acar19): 1.4 h

DWSGYSGSF [9-mer peptide]
Stability T½ (h), peptide - Acar19 (Acar19): 0.3 h

DYAMHGTVF [9-mer peptide]
Stability T½ (h), peptide - Acar19 (Acar19): 2.4 h

DYLQCVLQI [9-mer peptide]
Stability T½ (h), peptide - Acar19 (Acar19): 6.6 h

DYLQYVLQI [9-mer peptide]
Stability T½ (h), peptide - Acar19 (Acar19): 0.5 h

EAAGIAACL [9-mer peptide]
Stability T½ (h), peptide - Acar19 (Acar19): 0.6 h

EAAKNVECI [9-mer peptide]
Stability T½ (h), peptide - Acar19 (Acar19): 0.4 h

EDFEIFYNL [9-mer peptide]
Stability T½ (h), peptide - Acar19 (Acar19): 0.4 h

EFKQILTDF [9-mer peptide]
Stability T½ (h), peptide - Acar19 (Acar19): 3.6 h

ENALLVALF [9-mer peptide]
Stability T½ (h), peptide - Acar19 (Acar19): 0.1 h

ETFRLLRSF [9-mer peptide]
Stability T½ (h), peptide - Acar19 (Acar19): 0.1 h

EYAPFARLL [9-mer peptide]
Stability T½ (h), peptide - Acar19 (Acar19): 1.1 h

EYARQVQMI [9-mer peptide]
Stability T½ (h), peptide - Acar19 (Acar19): 0.4 h

KQMSQPYAV [9-mer peptide]
Stability T½ of Acar3 in complex with the peptide (Acar3; [1]): 240 min
Stability T½ (h), peptide - Acar3 (Acar3; [2]): 4.0 h

KTAAAAAAF [9-mer peptide]
Stability T½ of Acar3 in complex with the peptide (Acar3; [1]): 24 min
Stability T½ (h), peptide - Acar3 (Acar3; [2]): 0.4 h

KTMMQAHDL [9-mer peptide]
Stability T½ of Acar3 in complex with the peptide (Acar3; [1]): 594 min
Stability T½ (h), peptide - Acar3 (Acar3; [2]): 9.9 h

LDMNVVKEL [9-mer peptide]
Stability T½ of Acar3 in complex with the peptide (Acar3; [1]): 36 min
Stability T½ (h), peptide - Acar3 (Acar3; [2]): 0.6 h

LMDENTYAM [9-mer peptide]
Stability T½ of Acar3 in complex with the peptide (Acar3; [1]): 24 min
Stability T½ (h), peptide - Acar3 (Acar3; [2]): 0.4 h

LMMNGTSAM [9-mer peptide]
Stability T½ of Acar3 in complex with the peptide (Acar3; [1]): 48 min
Stability T½ (h), peptide - Acar3 (Acar3; [2]): 0.8 h

LPLPAQQPF [9-mer peptide]
Stability T½ of Acar3 in complex with the peptide (Acar3; [1]): 18 min
Stability T½ (h), peptide - Acar3 (Acar3; [2]): 0.3 h

LPRWPPPQL [9-mer peptide]
Stability T½ of Acar3 in complex with the peptide (Acar3; [1]): 18 min
Stability T½ (h), peptide - Acar3 (Acar3; [2]): 0.3 h

LQMLGENVL [9-mer peptide]
Stability T½ of Acar3 in complex with the peptide (Acar3; [1]): 156 min
Stability T½ (h), peptide - Acar3 (Acar3; [2]): 2.6 h

LRWLAKSFF [9-mer peptide]
Stability T½ of Acar3 in complex with the peptide (Acar3; [1]): 30 min
Stability T½ (h), peptide - Acar3 (Acar3; [2]): 0.5 h

LTMNLVSDI [9-mer peptide]
Stability T½ of Acar3 in complex with the peptide (Acar3; [1]): 270 min
Stability T½ (h), peptide - Acar3 (Acar3; [2]): 4.5 h

MMMPMFNAF [9-mer peptide]
Stability T½ of Acar3 in complex with the peptide (Acar3; [1]): 432 min
Stability T½ (h), peptide - Acar3 (Acar3; [2]): 7.2 h

MMMSTAVAF [9-mer peptide]
Stability T½ of Acar3 in complex with the peptide (Acar3; [1]): 438 min
Stability T½ (h), peptide - Acar3 (Acar3; [2]): 7.3 h

MMWATAQAL [9-mer peptide]
Stability T½ of Acar3 in complex with the peptide (Acar3; [1]): 48 min
Stability T½ (h), peptide - Acar3 (Acar3; [2]): 0.8 h

MPMSMPIPM [9-mer peptide]
Stability T½ of Acar3 in complex with the peptide (Acar3; [1]): 192 min
Stability T½ (h), peptide - Acar3 (Acar3; [2]): 3.2 h

MTYKAAFDL [9-mer peptide]
Stability T½ of Acar3 in complex with the peptide (Acar3; [1]): 108 min
Stability T½ (h), peptide - Acar3 (Acar3; [2]): 1.8 h

QAYAAPQLF [9-mer peptide]
Stability T½ of Acar3 in complex with the peptide (Acar3; [1]): 90 min
Stability T½ (h), peptide - Acar3 (Acar3; [2]): 1.5 h

QMSWLPLCV [9-mer peptide]
Stability T½ of Acar3 in complex with the peptide (Acar3; [1]): 36 min
Stability T½ (h), peptide - Acar3 (Acar3; [2]): 0.6 h

QQMFPGAPF [9-mer peptide]
Stability T½ of Acar3 in complex with the peptide (Acar3; [1]): 24 min
Stability T½ (h), peptide - Acar3 (Acar3; [2]): 0.4 h

QWALLPYLF [9-mer peptide]
Stability T½ of Acar3 in complex with the peptide (Acar3; [1]): 594 min
Stability T½ (h), peptide - Acar3 (Acar3; [2]): 9.9 h

RATQPAAEF [9-mer peptide]
Stability T½ of Acar3 in complex with the peptide (Acar3; [1]): 96 min
Stability T½ (h), peptide - Acar3 (Acar3; [2]): 1.6 h

REMINHYQV [9-mer peptide]
Stability T½ of Acar3 in complex with the peptide (Acar3; [1]): 42 min
Stability T½ (h), peptide - Acar3 (Acar3; [2]): 0.7 h

REWSGLNYL [9-mer peptide]
Stability T½ of Acar3 in complex with the peptide (Acar3; [1]): 114 min
Stability T½ (h), peptide - Acar3 (Acar3; [2]): 1.9 h

RMAMIPRTL [9-mer peptide]
Stability T½ of Acar3 in complex with the peptide (Acar3; [1]): 30 min
Stability T½ (h), peptide - Acar3 (Acar3; [2]): 0.5 h

RMMATKDSF [9-mer peptide]
Stability T½ of Acar3 in complex with the peptide (Acar3; [1]): 24 min
Stability T½ (h), peptide - Acar3 (Acar3; [2]): 0.4 h

RMMGKTNPL [9-mer peptide]
Stability T½ (h), peptide - Acar3 (Acar3; [2]): 0.2 h

RQIRMTSTI [9-mer peptide]
Stability T½ (h), peptide - Acar3 (Acar3; [2]): 0.1 h

SLAIDAYPL [9-mer peptide]
Stability T½ (h), peptide - Acar3 (Acar3): 2.1 h
Stability T½ of Acar3 in complex with the peptide (Acar3): 126 min

SMFERDFHF [9-mer peptide]
Stability T½ (h), peptide - Acar3 (Acar3; [2]): 0.2 h

SMHFYGWSL [9-mer peptide]
Stability T½ (h), peptide - Acar3 (Acar3; [2]): 0.2 h

SMMPEAMTI [9-mer peptide]
Stability T½ of Acar3 in complex with the peptide (Acar3; [1]): 54 min
Stability T½ (h), peptide - Acar3 (Acar3; [2]): 0.9 h

SQMGLSCAL [9-mer peptide]
Stability T½ of Acar3 in complex with the peptide (Acar3; [1]): 18 min
Stability T½ (h), peptide - Acar3 (Acar3; [2]): 0.3 h

STEFIPNLF [9-mer peptide]
Stability T½ of Acar3 in complex with the peptide (Acar3; [1]): 18 min
Stability T½ (h), peptide - Acar3 (Acar3; [2]): 0.3 h

SVYFAAFAF [9-mer peptide]
Stability T½ of Acar3 in complex with the peptide (Acar3; [1]): 96 min
Stability T½ (h), peptide - Acar3 (Acar3; [2]): 1.6 h

SYPPPPASF [9-mer peptide]
Stability T½ of Acar3 in complex with the peptide (Acar3; [1]): 12 min
Stability T½ (h), peptide - Acar3 (Acar3; [2]): 0.2 h

VIMWYNYLF [9-mer peptide]
Stability T½ of Acar3 in complex with the peptide (Acar3; [1]): 18 min
Stability T½ (h), peptide - Acar3 (Acar3; [2]): 0.3 h

VMMAKRPLI [9-mer peptide]
Stability T½ of Acar3 in complex with the peptide (Acar3; [1]): 30 min
Stability T½ (h), peptide - Acar3 (Acar3; [2]): 0.5 h

VMPLLVWLF [9-mer peptide]
Stability T½ of Acar3 in complex with the peptide (Acar3; [1]): 114 min
Stability T½ (h), peptide - Acar3 (Acar3; [2]): 1.9 h

VPMEKLKAL [9-mer peptide]
Stability T½ of Acar3 in complex with the peptide (Acar3; [1]): 84 min
Stability T½ (h), peptide - Acar3 (Acar3; [2]): 1.4 h

VQTAAAVVF [9-mer peptide]
Stability T½ (h), peptide - Acar3 (Acar3; [2]): 0.2 h

VVKQLPASF [9-mer peptide]
Stability T½ (h), peptide - Acar3 (Acar3; [2]): 0.1 h

WLAKSFFEL [9-mer peptide]
Stability T½ (h), peptide - Acar3 (Acar3; [2]): 0.2 h

WMACNSAAF [9-mer peptide]
Stability T½ of Acar3 in complex with the peptide (Acar3; [1]): 54 min
Stability T½ (h), peptide - Acar3 (Acar3; [2]): 0.9 h

WMMAMRYPI [9-mer peptide]
Stability T½ of Acar3 in complex with the peptide (Acar3; [1]): 186 min
Stability T½ (h), peptide - Acar3 (Acar3; [2]): 3.1 h

WQLTSIWPI [9-mer peptide]
Stability T½ of Acar3 in complex with the peptide (Acar3; [1]): 42 min
Stability T½ (h), peptide - Acar3 (Acar3; [2]): 0.7 h

YLLEMLWRL [9-mer peptide]
Stability T½ of Acar3 in complex with the peptide (Acar3; [1]): 24 min
Stability T½ (h), peptide - Acar3 (Acar3; [2]): 0.4 h

YLMPYSVYI [9-mer peptide]
Stability T½ (h), peptide - Acar3 (Acar3; [2]): 0.1 h

YLQQNTHTL [9-mer peptide]
Stability T½ of Acar3 in complex with the peptide (Acar3; [1]): 30 min
Stability T½ (h), peptide - Acar3 (Acar3; [2]): 0.5 h

YLYLRPYAL [9-mer peptide]
Stability T½ of Acar3 in complex with the peptide (Acar3; [1]): 144 min
Stability T½ (h), peptide - Acar3 (Acar3; [2]): 2.4 h

YMHGSIHEV [9-mer peptide]
Stability T½ of Acar3 in complex with the peptide (Acar3; [1]): 54 min
Stability T½ (h), peptide - Acar3 (Acar3; [2]): 0.9 h

YMKKRYEEF [9-mer peptide]
Stability T½ (h), peptide - Acar3 (Acar3; [2]): 0.2 h

YMWECPDFF [9-mer peptide]
Stability T½ of Acar3 in complex with the peptide (Acar3; [1]): 156 min
Stability T½ (h), peptide - Acar3 (Acar3; [2]): 2.6 h

YMWLGARYL [9-mer peptide]
Stability T½ of Acar3 in complex with the peptide (Acar3; [1]): 24 min
Stability T½ (h), peptide - Acar3 (Acar3; [2]): 0.4 h

YWMGGTTYF [9-mer peptide]
Stability T½ of Acar3 in complex with the peptide (Acar3; [1]): 48 min
Stability T½ (h), peptide - Acar3 (Acar3; [2]): 0.8 h
